According to US9567347B2, “Use of small molecule inhibitors targeting the interaction between RAC GTPase and p67(phox)” (CHILDREN'S HOSPITAL MEDICAL CENTER, priority 2012, dated 2017):
Where two headings read alike, the source gives them in different places.

Assays:
[1] = tested on: primary human neutrophils; assay: luminol chemiluminescence assay of fMLP-induced ROS production; format: cell-based
Protocol: HL-60 cells were propagated in RPMI 1640 medium containing 10% heat inactivated fetal bovine serum, 2 mM L-glutamine, 100 U/mL penicillin/streptomycin at 37° C. in air containing 5% CO2. For differentiation, HL-60 cells were cultured in 1.3% dimethyl sulfoxide (DMSO) as previously described (Servant, G., et al. (1999) Mol Biol Cell 10, 1163-1178, hereby incorporated by reference in its entirety). Primary murine neutrophils were isolated from C57Bl/6 mouse bone marrow according to a published protocol (Filippi et al., (2004) Nat Immunol 5, 744-751, hereby incorporated by reference in its entirety) using a discontinuous Percoll (Pharmacia) gradient and were utilized immediately in experiments. Human neutrophils were obtained from fresh blood (IRB #2010-1855, Cincinnati Children's Hospital medical Center) following a well established protocol using density gradient separation from whole blood (Oh et al. (2008) J Vis Exp., 17, pii: 745, hereby incorporated by reference in its entirety). […]
Chemiluminescence was measured using GloMax®-96 Microplate Luminometer (Promega) (Tarpey et al., (2004) Am J Physiol Regul Integr Comp Physiol 286: R431-R444, hereby incorporated by reference in its entirety). […]

[2] = tested on: fMLP-stimulated differentiated HL-60 cells; assay: H2-DCFDA FACS ROS production assay in fMLP-stimulated differentiated HL-60 cells; format: cell-based, human; conditions: for IC50: dHL-60 cells, DCFDA assay; for inhibition of ROS production, Phox-I1 analogs: FIG. 3B
Protocol: HL-60 cells were propagated in RPMI 1640 medium containing 10% heat inactivated fetal bovine serum, 2 mM L-glutamine, 100 U/mL penicillin/streptomycin at 37° C. in air containing 5% CO2. For differentiation, HL-60 cells were cultured in 1.3% dimethyl sulfoxide (DMSO) as previously described (Servant, G., et al. (1999) Mol Biol Cell 10, 1163-1178, hereby incorporated by reference in its entirety). Primary murine neutrophils were isolated from C57Bl/6 mouse bone marrow according to a published protocol (Filippi et al., (2004) Nat Immunol 5, 744-751, hereby incorporated by reference in its entirety) using a discontinuous Percoll (Pharmacia) gradient and were utilized immediately in experiments. Human neutrophils were obtained from fresh blood (IRB #2010-1855, Cincinnati Children's Hospital medical Center) following a well established protocol using density gradient separation from whole blood (Oh et al. (2008) J Vis Exp., 17, pii: 745, hereby incorporated by reference in its entirety).
(§1) Cells (5×10^5) were harvested and processed for Annexin V/7AAD staining according to manufacturer's protocol (Becton Dickinson). Flow cytometry data were acquired on a FACS Canto bench-top flow cytometer (Becton Dickinson) and the cell cycle distributions were determined by […] using Flo-Jo software (Bosco et al (2010) Blood 115, 3320-3328, hereby incorporated by reference in its entirety). For ROS production assay, primary murine neutrophils or dHL60 cells were incubated with compound for 2 hours prior to addition of H2-DCFDA according to manufacturer's instructions (Molecular Probes). Cells were then stimulated with 10 μM fMLP (Sigma), 1 mM CaCl2, and 1.5 mM MgCl2 for 15 minutes prior to wash and FACS analysis for mean fluorescence intensity. Non-fMLP stimulated control values were subtracted from all samples before normalization to fMLP-stimulated, vehicle control treated sample in order to display percent ROS inhibition.
To validate the hits from preliminary screening in cells, several cellular functional assays were performed using different cell types to measure the effect of compounds on inhibition of ROS production. ROS levels were first analyzed by fluorescence-activated cell sorting (FACS) in HL-60 pre-incubated with compounds for 2 hr prior to stimulation of ROS production. The p67^phox inhibitor, Phox-I1, was tested against NAC (a ROS scavenger), DPI (a broad range inhibitor of NADPH oxidase), and NSC23766 (a Rac-GTP inhibitor; FIG. 2A). […] H2O2 added to the cells was included as a positive control for ROS measurement. Second, to test the capacity of Phox-I1 to inhibit ROS production in a primary cell context, primary murine neutrophils isolated from mouse bone marrow were treated with increasing concentrations of Phox-I1 and the efficacy of inhibition of fMLP-stimulated ROS production was analyzed. DPI treatment was included as a positive control for inhibition of ROS production (FIG. 2B). […] Next, to ascertain the optimal effective dose for ROS inhibition in cells, a dose titration series of Phox-I1 was administered to dHL-60 cells (FIG. 2C).

[3] = tested on: dHL-60 cells; assay: antioxidant (ROS scavenger) test in dHL-60 cells pre-stimulated with fMLP; format: cell-based, human; conditions: fMLP 30 min prior to treatment
Protocol: (A) Apoptosis analysis by FACS of HL-60 cells treated with compound or vehicle control for 2 hours prior to 7-AAD and Annexin V staining. (B) HL-60 cells from A were harvested and lysates were immunoblotted for levels of pPAK, and actin was used as a control for loading. (C) F-actin reorganization in freshly isolated fMLP-stimulated primary murine neutrophils was analyzed. […] Cells were exposed to a 10 μM dose of Phox-I1, Phox-I2, and Analog 13, and 200 nM nocodazole. (D) The effect of Phox-I on NOX4 mediated ROS production was tested in primary murine neutrophils transfected with a NOX4 expressing plasmid. 10 μM Phox-I1 was applied to the cells for 30 min prior to ROS assay by luminol chemiluminescence in the presence of HRP. The fMLP-stimulated ROS activity in the presence or absence of 10 uM Phox-I1 was measured in parallel. (E) The antioxidant abilities of these lead compounds were tested by prestimulating dHL-60 cells with fMLP for 30 minutes prior to treatment with Phox-I1 or Phox-I2. Levels of superoxide were analyzed by DCFDA assay and FACS. NAC, apocyanin, DPI, and NSC23766 treated cells served as controls. […] (G) For stability assay, DMSO-differentiated HL-60 cells were treated with 20 μM dose of compound for the indicated time period prior to fMLP stimulation and DCFDA ROS production assay by FACS analysis.
Phox-I1 was then applied to primary murine neutrophils expressing the constitutively active NOX4. […] To further rule out that Phox-I1 and Phox-I2 may simply act as scavengers of ROS, dHL-60 cells were pre-stimulated with fMLP for 30 min prior to treatment with Phox-I1 or Phox-I2.

[4] = tested on: undifferentiated HL-60 cells; assay: apoptosis analysis by FACS (Annexin V / 7-AAD); format: cell-based, human; conditions: 20 or 100 μM
Protocol: as §1
In order to determine potency and cytotoxicity of Phox-I1 and Phox-I2, the levels of apoptosis were assessed in undifferentiated HL-60 cells treated with 20 or 100 μM Phox-I1, Phox-I2, or NSC23766 by FACS analysis for Annexin V (FIG. 4A).

| SMILES | IC50 ([1]; Neutrophil) | ROS production compared to standard ROS inhibitors ([2]; 20 μM, pre-incubated 2 hr) | IC50 ([2]; Homo sapiens, HL-60) | dose of optimal cellular response ([2]; dose titration in dHL-60 cells) | inhibition of ROS production, Phox-I1 analogs ([2]; pre-incubated 2 hr) | levels of superoxide already produced [3] | cell apoptosis (Annexin V) [4] | IC50 [1] | IC50 [2] | inhibition of ROS production, Phox-I1 analogs ([2]; pre-incubated 2 hr, listed as Analog 16) | inhibition of ROS production, Phox-I1 analogs ([2]; pre-incubated 2 hr, listed as analog 16) |
| --- | --- | --- | --- | --- | --- | --- | --- | --- | --- | --- | --- |
| COc1ccc2c(c1)C1C=C(c3ccccc3)NN1C(c1cccc([N+](=O)[O-])c1)O2 (stereo not shown) [Phox-I1] | ~8 µM | able to attenuate ROS production | ~3 µM | 10 µM | greatest inhibition of ROS production | do not affect | no detectable effect on cell apoptosis |  |  |  |  |
| O=[N+]([O-])c1cccc(C2Nc3ccc([N+](=O)[O-])cc3C3C=CCC32)c1 (stereo not shown) [Phox-I2] |  |  |  |  |  | do not affect | no detectable effect on cell apoptosis | ~6 µM | ~1 µM | improved ROS inhibition over Phox1 | greatest inhibition of ROS production |
